Reference: patent US20250101041A1, “POSITIVE ALLOSTERIC MODULATORS OF THE MUSCARINIC ACETYLCHOLINE RECEPTOR M4” (Vanderbilt University, priority 2022, published 2025)

Target: T1, human mAChR M4 (Homo sapiens, UniProt P08173)
T1 construct: expressed in transfected cells; host or cells: CHO-K1 (American Type Culture Collection), stably expressing hM4 and Gqi5
T1 sequence (P08173 1-479): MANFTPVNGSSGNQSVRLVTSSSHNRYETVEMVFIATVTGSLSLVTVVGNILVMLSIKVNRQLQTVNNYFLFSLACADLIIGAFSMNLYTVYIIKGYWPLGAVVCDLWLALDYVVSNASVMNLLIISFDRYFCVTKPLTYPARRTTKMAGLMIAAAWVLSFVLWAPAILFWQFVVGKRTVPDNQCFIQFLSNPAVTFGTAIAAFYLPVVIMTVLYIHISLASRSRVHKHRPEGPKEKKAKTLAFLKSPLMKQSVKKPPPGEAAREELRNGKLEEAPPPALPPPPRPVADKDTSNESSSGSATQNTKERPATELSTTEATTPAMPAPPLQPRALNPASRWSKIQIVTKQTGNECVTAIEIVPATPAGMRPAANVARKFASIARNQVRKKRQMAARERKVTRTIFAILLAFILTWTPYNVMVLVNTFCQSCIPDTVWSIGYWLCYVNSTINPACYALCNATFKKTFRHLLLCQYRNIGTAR
Test: mAChR M4 cell-based functional assay: calcium mobilization (Fluo-4, FDSS), potentiation of EC20 acetylcholine response in hM4-Gqi5 CHO-K1 cells
Details: human M4; for Emax at 30 µM: CHO-K1, % ACh maximum at 30 μM; for EC50: potentiation of EC20 acetylcholine response, calcium mobilization
Summary of the method: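 CHO-K1 cells stably co-expressing human M4 and chimeric Gqi5, loaded with Fluo-4 AM (50 min, 37 °C). Compounds in 11-point 1:3 series added first; EC20 acetylcholine added at 144 s and again at 230 s. Calcium read on FDSS at 1 Hz; EC50 and Emax from four-parameter logistic fit of potentiated EC20 response.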

Q: How did the Emax at 30 µM turn out when `Cc1c(N2CCc3ncc(-n4cccn4)cc3C2)nn2c(=O)ccnc2c1C` [Compound 2-34, 7-(3-(1H-pyrazol-1-yl)-7,8-dihydro-1,6-naphthyridin-6(5H)-yl)-8,9-dimethyl-4H-pyrimido[1,2-b]pyridazin-4-one] was run?
A: 77%

Q: And the EC50?
A: 318 nM

Q: What does the source list for `Cc1cc2n(n1)CCCN2c1cnc2c(c1)CN(c1nn3c(=O)ccnc3c(C)c1C)CC2` [Compound 2-35, 8,9-dimethyl-7-(3-(2-methyl-6,7-dihydropyrazolo[1,5-a]pyrimidin-4(5H)-yl)-7,8-dihydro-1,6-naphthyridin-6(5H)-yl)-4H-pyrimido[1,2-b]pyridazin-4-one]?
A: Emax at 30 µM: 96%; EC50: 46 nM

Q: With `Cc1c(N2CCc3ncc(N4CCCn5nccc54)cc3C2)nn2c(=O)ccnc2c1C` [Compound 2-36, 7-(3-(6,7-dihydropyrazolo[1,5-a]pyrimidin-4(5H)-yl)-7,8-dihydro-1,6-naphthyridin-6(5H)-yl)-8,9-dimethyl-4H-pyrimido[1,2-b]pyridazin-4-one] as the compound, how does the Emax at 30 µM read?
A: 103%

Q: And the EC50?
A: 13 nM

Q: `Cc1cc(=O)n2nc(N3CCc4ncc(N5CC6CC5CO6)cc4C3)c(C)c(C)c2n1` (stereo not shown) [Compound 2-37, 7-(3-(2-oxa-5-azabicyclo[2.2.1]heptan-5-yl)-7,8-dihydro-1,6-naphthyridin-6(5H)-yl)-2,8,9-trimethyl-4H-pyrimido[1,2-b]pyridazin-4-one] was tested. Which Emax at 30 µM did it give?
A: 81%

Q: What about the EC50 of the same compound?
A: 1340 nM

Q: What does the source list for `Cc1cc(=O)n2nc(N3CCc4ncc(N5C[C@@H](C)O[C@@H](C)C5)cc4C3)c(C)c(C)c2n1` [Compound 2-38, 7-(3-((2R,6S)-2,6-dimethylmorpholino)-7,8-dihydro-1,6-naphthyridin-6(5H)-yl)-2,8,9-trimethyl-4H-pyrimido[1,2-b]pyridazin-4-one]?
A: Emax at 30 µM: 76%; EC50: 1300 nM

Q: Which Emax at 30 µM does the source give for `Cc1cc(=O)n2nc(N3CCc4ncc(N5CCOC(C)(C)C5)cc4C3)c(C)c(C)c2n1` [Compound 2-39, 7-(3-(2,2-dimethylmorpholino)-7,8-dihydro-1,6-naphthyridin-6(5H)-yl)-2,8,9-trimethyl-4H-pyrimido[1,2-b]pyridazin-4-one] here?
A: 96%

Q: And the EC50?
A: 123 nM

Q: `Cc1c(N2CCc3ncc(N4CCOC(C)(C)C4)cc3C2)nn2c(=O)cc(C(F)F)nc2c1C` [Compound 2-40, 2-(difluoromethyl)-7-(3-(2,2-dimethylmorpholino)-7,8-dihydro-1,6-naphthyridin-6(5H)-yl)-8,9-dimethyl-4H-pyrimido[1,2-b]pyridazin-4-one] was tested. Which Emax at 30 µM did it give?
A: 90%

Q: And the EC50?
A: 29 nM

Q: Which results are given for `Cc1c(N2CCc3ncc(N4C[C@@H](C)O[C@@H](C)C4)cc3C2)nn2c(=O)cc(C(F)F)nc2c1C` [Compound 2-41, 2-(difluoromethyl)-7-(3-((2R,6S)-2,6-dimethylmorpholino)-7,8-dihydro-1,6-naphthyridin-6(5H)-yl)-8,9-dimethyl-4H-pyrimido[1,2-b]pyridazin-4-one]?
A: Emax at 30 µM: 96%; EC50: 822 nM

Q: With `Cc1cc(=O)n2nc(N3CCc4ncc(N5CC6CC5CO6)cc4C3)c(C)cc2n1` (stereo not shown) [Compound 2-42, 7-(3-(2-oxa-5-azabicyclo[2.2.1]heptan-5-yl)-7,8-dihydro-1,6-naphthyridin-6(5H)-yl)-2,8-dimethyl-4H-pyrimido[1,2-b]pyridazin-4-one] as the compound, how does the Emax at 30 µM read?
A: 77%

Q: And the EC50?
A: 850 nM

Q: How did the Emax at 30 µM turn out when `Cc1cc(=O)n2nc(N3CCc4ncc(N5CC6CCC(C5)O6)cc4C3)c(C)c(C)c2n1` [Compound 2-43, 7-(3-(8-oxa-3-azabicyclo[3.2.1]octan-3-yl)-7,8-dihydro-1,6-naphthyridin-6(5H)-yl)-2,8,9-trimethyl-4H-pyrimido[1,2-b]pyridazin-4-one] was run?
A: 76%

Q: What about the EC50 of the same compound?
A: 310 nM

Q: For `Cc1cc(=O)n2nc(N3CCc4ncc(NCC5CCCOC5)cc4C3)c(C)c(C)c2n1` (stereo not shown) [Compound 2-44, 2,8,9-trimethyl-7-(3-(((tetrahydro-2H-pyran-3-yl)methyl)amino)-7,8-dihydro-1,6-naphthyridin-6(5H)-yl)-4H-pyrimido[1,2-b]pyridazin-4-one], which Emax at 30 µM is on record?
A: 65%

Q: And the EC50?
A: 611 nM

Q: For `COC1CCN(c2cnc3c(c2)CN(c2nn4c(=O)cc(C)nc4c(C)c2C)CC3)CC1` [Compound 2-45, 7-(3-(4-methoxypiperidin-1-yl)-7,8-dihydro-1,6-naphthyridin-6(5H)-yl)-2,8,9-trimethyl-4H-pyrimido[1,2-b]pyridazin-4-one], which Emax at 30 µM is on record?
A: 66%

Q: What about the EC50 of the same compound?
A: 827 nM

Q: For `Cc1cc(=O)n2nc(N3CCc4ncc(N5CCSCC5)cc4C3)c(C)c(C)c2n1` [Compound 2-46, 2,8,9-trimethyl-7-(3-thiomorpholino-7,8-dihydro-1,6-naphthyridin-6(5H)-yl)-4H-pyrimido[1,2-b]pyridazin-4-one], which Emax at 30 µM is on record?
A: 99%

Q: What about the EC50 of the same compound?
A: 308 nM

Q: Which Emax at 30 µM does the source give for `Cc1cc(=O)n2nc(N3CCc4ncc(N5CCC6(CC5)COC6)cc4C3)c(C)c(C)c2n1` [Compound 2-47, 7-(3-(2-oxa-7-azaspiro[3.5]nonan-7-yl)-7,8-dihydro-1,6-naphthyridin-6(5H)-yl)-2,8,9-trimethyl-4H-pyrimido[1,2-b]pyridazin-4-one] here?
A: 66%

Q: And the EC50?
A: 2150 nM

Q: With `Cc1c(N2CCc3ncc(N4CCC(F)(F)CC4)cc3C2)nn2c(=O)cc(C(F)F)nc2c1C` [Compound 2-48, 2-(difluoromethyl)-7-(3-(4,4-difluoropiperidin-1-yl)-7,8-dihydro-1,6-naphthyridin-6(5H)-yl)-8,9-dimethyl-4H-pyrimido[1,2-b]pyridazin-4-one] as the compound, how does the Emax at 30 µM read?
A: 79%

Q: What about the EC50 of the same compound?
A: 334 nM

Q: What does the source list for `Cc1cc(=O)n2nc(N3CCc4ncc(N5CCOC(c6cccnc6)C5)cc4C3)c(C)c(C)c2n1` (stereo not shown) [Compound 2-49, 2,8,9-trimethyl-7-(3-(2-(pyridin-3-yl)morpholino)-7,8-dihydro-1,6-naphthyridin-6(5H)-yl)-4H-pyrimido[1,2-b]pyridazin-4-one]?
A: Emax at 30 µM: 75%; EC50: 1200 nM

Q: What does the source list for `Cc1cc(=O)n2nc(N3CCc4ncc(NCc5csc(C)n5)cc4C3)c(C)c(C)c2n1` [Compound 2-50, 2,8,9-trimethyl-7-(3-(((2-methylthiazol-4-yl)methyl)amino)-7,8-dihydro-1,6-naphthyridin-6(5H)-yl)-4H-pyrimido[1,2-b]pyridazin-4-one]?
A: Emax at 30 µM: 53%; EC50: 837 nM

Q: With `Cc1cc2nccc(=O)n2nc1N1CCc2ncc(N3CC(C)(C)Oc4ccccc43)cc2C1` [Compound 2-51, 7-(3-(2,2-dimethyl-2,3-dihydro-4H-benzo[b][1,4]oxazin-4-yl)-7,8-dihydro-1,6-naphthyridin-6(5H)-yl)-8-methyl-4H-pyrimido[1,2-b]pyridazin-4-one] as the compound, how does the Emax at 30 µM read?
A: 80%

Q: What about the EC50 of the same compound?
A: 125 nM

Q: Which Emax at 30 µM does the source give for `Cc1cc2nccc(=O)n2nc1N1CCc2ncc(N3c4ccc(F)cc4OCC3C)cc2C1` (stereo not shown) [Compound 2-52, 7-(3-(7-fluoro-3-methyl-2,3-dihydro-4H-benzo[b][1,4]oxazin-4-yl)-7,8-dihydro-1,6-naphthyridin-6(5H)-yl)-8-methyl-4H-pyrimido[1,2-b]pyridazin-4-one] here?
A: 89%

Q: What about the EC50 of the same compound?
A: 16 nM

Q: `Cc1ccc2c(c1)N(c1cnc3c(c1)CN(c1nn4c(=O)ccnc4cc1C)CC3)CCO2` [Compound 2-53, 8-methyl-7-(3-(6-methyl-2,3-dihydro-4H-benzo[b][1,4]oxazin-4-yl)-7,8-dihydro-1,6-naphthyridin-6(5H)-yl)-4H-pyrimido[1,2-b]pyridazin-4-one] was tested. Which Emax at 30 µM did it give?
A: 87%

Q: What about the EC50 of the same compound?
A: 28 nM
